Common to all, as to format: cell-based, Sprague Dawley rats
Assay [1] relates to GluA1 surface expression in cultured hippocampal neurons. Nature of the assay: Surface labelling of AMPA receptor subunit GluA1 (immunocytochemistry). As to conditions: for surface GluA1 expression: 50 nM, 15 min; for GluA1 staining in the presence of bpV: bpV plus leptin or leptin (116-130); for GluA1 surface expression in the presence of Aβ1-42: leptin peptide 10 nM plus Aβ1-42; for GluA1 surface expression, low concentration alone: 10 nM. How it is done: Hippocampal cultures were prepared from neonatal Sprague Dawley rats as before (O'Malley et al. 2007). Briefly, neonatal Sprague Dawley rats (1-3 days old) were killed by cervical dislocation in accordance with Schedule 1 of the United Kingdom Government Animals (Scientific Procedures) Act, 1986 and the hippocampi removed. After washing in HEPES buffered saline (HBS) comprising (mM): NaCl 135; KCl 5; CaCl2 1; MgCl2 1; HEPES 10; D-glucose 25 at pH 7.4; cells were treated with protease Type X and Type XIV (0.5 mg/ml; Sigma) for 25 min at room temperature. Dissociated cells were plated onto sterile dishes (Falcon 3001) treated with poly-1-lysine (20 μg/ml; 1-2 h) and maintained in MEM with serum replacement-2 (Sigma) in a humidified atmosphere of 5% CO2 and […] at 37° C. for up to 3 weeks.
To monitor GluA1 surface expression, immunocytochemistry was performed on hippocampal cultures (7-14 DIV) as before (Moult et al. 2010). Neurons were treated with agents for 20 min at room temperature (20-22° C.) before incubation with an antibody against an N-terminal region of GluA1 (sheep anti-GluR1; in house antibody against synthetic peptide (RTSDSRDHTRVDWKR) corresponding to 253-267 residues of GluR1; 1:100; Moult et al. 2010) at 4° C. Neurons were then fixed with 4% paraformaldehyde (5 min) before adding an appropriate fluorescently labelled secondary.
Trafficking of AMPA receptors to and away from synapses is crucial for various forms of activity-dependent synaptic plasticity (Collingridge et al. 2004). Our studies indicate that leptin regulates AMPA receptor trafficking as leptin promotes trafficking of GluA1 to hippocampal synapses (Moult et al. 2010). Moreover the ability of leptin to induce LTP in adult hippocampus requires the delivery of GluA1 to synapses by leptin (Moult et al. 2010). Thus, to assess if the leptin fragments also influence AMPA receptor trafficking processes, the surface expression of GluA1 was assayed in cultured hippocampal neurons (Moult et al. 2010). In agreement with previous studies, application of leptin (50 nM; 15 min) increased surface GluA1 expression to 184±7%; (n=36; P<0.001; FIG. 2C,D) compared with control hippocampal neurons. Similarly GluA1 surface expression was elevated (to 160±6% of control; n=36; P<0.001) after exposure to 50 nM leptin (116-130; FIG. 2C,D), whereas GluA1 surface expression (98±4% of control; n=36; P>0.05) was not altered after treatment with 50 nM leptin (22-56).

Assay [2] deals with juvenile hippocampal slices. The assay can be described thus: Subthreshold LFS: Aβ1-42-induced LTD. As to conditions: for basal synaptic transmission: 10 nM; for synaptic transmission after LFS (magnitude of Aβ1-42-induced LTD): 10 nM plus Aβ1-42. How it is done:
(§1) Parasagittal hippocampal slices (300 μm) were prepared from either P13-21 or 12-24-week-old male Sprague Dawley rats as previously (Moult et al. 2010). Brains were rapidly removed and placed in ice-cold artificial CSF (aCSF; bubbled with 95% O2 and 5% CO2) containing the following (in mm): 124 NaCl, 3 KCl, 26 NaHCO3, 1.25 NaH2PO4, 2 CaCl2, 1 MgSO4, and 10 d-glucose. Once prepared, parasagittal slices were allowed to recover at room temperature in oxygenated aCSF for 1 h before use. Slices were transferred to a submerged chamber maintained at room temperature and perfused with artificial cerebrospinal fluid at 2 ml min^−1. Standard extracellular recordings were used to monitor evoked field excitatory postsynaptic potentials (fEPSP) from stratum radiatum. The Schaffer collateral-commissural pathway was stimulated (constant voltage; 0.1 ms) at 0.033 Hz, using a stimulus intensity that evoked a peak amplitude ˜50% of the maximum. Synaptic potentials were low pass filtered at 2 kHz and digitally sampled at 10 kHz. The fEPSP slope was measured and expressed relative to baseline. Synaptic records are the average of 4 consecutive responses and stimulus artefacts are blanked for clarity. Recordings were made using an Axopatch 200B amplifier and analyzed using LTP v2.4 software. In synaptic plasticity studies, the degree of potentiation was calculated 30-35 min after HFS and expressed as a percentage of baseline±standard error of mean (SEM).
It is known that oligomeric Aβ promotes the induction of LTD (Shankar et al. 2008) and that exposure to a low concentration of leptin (10 nM) prevents facilitation of hippocampal LTD by Aβ1-42 (Doherty et al. 2013). Thus we assessed if either of the leptin fragments mirror leptin action. Initially we verified that leptin prevented Aβ1-42-induced LTD. […] Furthermore, leptin (10 nM) reduced the magnitude of Aβ1-42-induced LTD such that LFS depressed synaptic transmission to 101±5.3% of baseline in leptin-treated slices (n=4; P>0.05; FIG. 4B). To establish if the leptin fragments mirrored leptin action the effects of leptin (116-130) or leptin (22-56) were also examined.

Assay [3] deals with adult hippocampal slices (12-24 weeks). Nature of the assay: Excitatory synaptic transmission (fEPSP) in adult hippocampal slices. As to conditions: 25 nM; 20 min; adult (12-24 weeks) slices. The method, then: as §1
We have shown that leptin regulation of excitatory synaptic transmission is age-dependent. Thus in contrast to its effects in juvenile tissue, leptin (25 nM) induces a novel form of LTP in adult hippocampus (Moult and Harvey 2011). In order to verify if the leptin fragments mirror leptin action in adult tissue, the effects of the leptin fragments were examined in hippocampal slices from adult (12-24 weeks) rats.

With “Aβ1-42: amyloid beta 1-42, toxin used in the AD models [reference compound]”, the “GluA1 surface expression, Aβ1-42 alone” value in assay [1] (500 nM, 20 min, control Aβ42-1-treated neurons) is reported as 70±2 % of control. Further, the “synaptic transmission after subthreshold LFS (LTD), Aβ1-42 alone” value in assay [2] (vehicle-treated slices 94±5.6%) is 73±3.8 % of baseline.

Take “SCSLPQTSGLQKPES (listed as Mus musculus) [leptin (116-130)]”: the synaptic transmission in assay [3] is on record as 140±13 % of baseline. For the same substance, in assay [1], the “surface GluA1 expression” value is reported as 160±6 % of control, the “GluA1 staining in the presence of bpV” value was 148±8.1 % of control and the “GluA1 surface expression in the presence of Aβ1-42” value is given as 97±4 % of control. In assay [2], the basal synaptic transmission result was “no significant effect on basal synaptic transmission” and the “synaptic transmission after LFS (magnitude of Aβ1-42-induced LTD)” value (from here on “synaptic transmission after LFS”) was 94±5.2 % of baseline.

In the case of “leptin (22-56): leptin fragment amino acids 22-56 (Bachem), comparison fragment (VPIQKVQDDTKTLIKTIVTRINDISHTQSVSSKQK; UniProt P41159 22-56, looked up, fragment) [reference compound]”, in assay [3], the synaptic transmission is on record as 99±2 % of baseline. In addition, in assay [1], the “GluA1 surface expression, low concentration alone” value was “no significant effect on GluA1 trafficking per se”; the “surface GluA1 expression” value is given as 98±4 % of control; the “GluA1 surface expression in the presence of Aβ1-42” value is 51±2 % of control. In addition, in assay [2], the basal synaptic transmission result is reported as “no significant effect on basal synaptic transmission” and the “synaptic transmission after LFS” value is 73±4.0 % of baseline.

For “leptin: the metabolic hormone leptin, whole (full length) leptin molecule; human leptin from Sigma in SH-SY5Y work”, the synaptic transmission in assay [3] is 188±13 % of baseline. Further, in assay [1], the “GluA1 surface expression, low concentration alone” value was 113±7 % of control; the “surface GluA1 expression” value is recorded as 184±7 % of control; the “GluA1 staining in the presence of bpV” value is given as 131±6.6 % of control; the “GluA1 surface expression in the presence of Aβ1-42” value is listed as 101±4 % of control. For the same substance, the “synaptic transmission after LFS” value in assay [2] is on record as 101±5.3 % of baseline.

Source of the values: patent publication US20200255492A1, “LEPTIN PEPTIDES AND THEIR USE FOR TREATING NEUROLOGICAL DISORDERS” (UNIVERSITY OF DUNDEE, priority 2017, published 2020).
